Laboratory results from US20260373119A1, “NOVEL COMPOUND, AND COMPOSITION FOR PREVENTING OR TREATING HER2-POSITIVE CANCER, COMPRISING SAME” (EWHA UNIVERSITY - INDUSTRY COLLABORATION FOUNDATION, priority 2022, published 2026).

Assays:
Assay type in all cases: cell-based
[1] = test system: T47D (HER2-negative breast cancer cell line); assay: antiproliferative effect, T47D; details: Homo sapiens, 72 hours
Method: (§1) The antiproliferative effects were measured after treating Compounds 1 to 22 for 72 hours on HCT15 (HER2-positive colorectal cancer cell line), NCI-N87 (HER2-positive gastric cancer cell line), T47D (HER2-negative breast cancer cell line), and HeLa (HER2-negative cervical cancer cell line). As a result, strong antiproliferative effects were generally observed in the NCI-N87 cell line (Table 2).
(§2) The antiproliferative effects of the candidate compound, resulting from HER2 inhibition, were evaluated. Specifically, to confirm the anticancer effects of the candidate compound, cancer cells were seeded at a density of 10^4 cells/well in a 96-well cell culture plate for 20 hours. The cells were starved in serum-free media for 4 hours, followed by replacement with media containing the compound at specified concentrations. The cells were then incubated for 72 hours under conditions of 5% CO2 at 37 °C. Cell viability was determined by adding 5 μL of EZ-CytoX to each well and measuring absorbance at 450 nm. The measurements were performed using an ELISA Microplate Reader (VersaMax, Molecular Devices).

[2] = test system: HCT15 (HER2-positive colorectal cancer cell line); assay: antiproliferative effect, HCT15; details: Homo sapiens, HCT-15, 72 hours
Method: as §1, §2

[3] = test system: HeLa (HER2-negative cervical cancer cell line); assay: antiproliferative effect, HeLa; details: Homo sapiens, 72 hours
Method: as §1, §2

[4] = target: T1, ELF3-MED23 protein-protein interaction (Homo sapiens, UniProt Q9ULK4); assay: SEAP reporter assay, ELF3-MED23 PPI inhibition (293T kidney cells); details: HEK-293T; 10 μM
T1 construct: followed by the addition of either the candidate compound or MED23 protein constructs; endogenous in cells; host or cells: 293T kidney cells (MED23 endogenous; GAL4-ELF3 transfected)
T1 sequence (Q9ULK4 1-1368): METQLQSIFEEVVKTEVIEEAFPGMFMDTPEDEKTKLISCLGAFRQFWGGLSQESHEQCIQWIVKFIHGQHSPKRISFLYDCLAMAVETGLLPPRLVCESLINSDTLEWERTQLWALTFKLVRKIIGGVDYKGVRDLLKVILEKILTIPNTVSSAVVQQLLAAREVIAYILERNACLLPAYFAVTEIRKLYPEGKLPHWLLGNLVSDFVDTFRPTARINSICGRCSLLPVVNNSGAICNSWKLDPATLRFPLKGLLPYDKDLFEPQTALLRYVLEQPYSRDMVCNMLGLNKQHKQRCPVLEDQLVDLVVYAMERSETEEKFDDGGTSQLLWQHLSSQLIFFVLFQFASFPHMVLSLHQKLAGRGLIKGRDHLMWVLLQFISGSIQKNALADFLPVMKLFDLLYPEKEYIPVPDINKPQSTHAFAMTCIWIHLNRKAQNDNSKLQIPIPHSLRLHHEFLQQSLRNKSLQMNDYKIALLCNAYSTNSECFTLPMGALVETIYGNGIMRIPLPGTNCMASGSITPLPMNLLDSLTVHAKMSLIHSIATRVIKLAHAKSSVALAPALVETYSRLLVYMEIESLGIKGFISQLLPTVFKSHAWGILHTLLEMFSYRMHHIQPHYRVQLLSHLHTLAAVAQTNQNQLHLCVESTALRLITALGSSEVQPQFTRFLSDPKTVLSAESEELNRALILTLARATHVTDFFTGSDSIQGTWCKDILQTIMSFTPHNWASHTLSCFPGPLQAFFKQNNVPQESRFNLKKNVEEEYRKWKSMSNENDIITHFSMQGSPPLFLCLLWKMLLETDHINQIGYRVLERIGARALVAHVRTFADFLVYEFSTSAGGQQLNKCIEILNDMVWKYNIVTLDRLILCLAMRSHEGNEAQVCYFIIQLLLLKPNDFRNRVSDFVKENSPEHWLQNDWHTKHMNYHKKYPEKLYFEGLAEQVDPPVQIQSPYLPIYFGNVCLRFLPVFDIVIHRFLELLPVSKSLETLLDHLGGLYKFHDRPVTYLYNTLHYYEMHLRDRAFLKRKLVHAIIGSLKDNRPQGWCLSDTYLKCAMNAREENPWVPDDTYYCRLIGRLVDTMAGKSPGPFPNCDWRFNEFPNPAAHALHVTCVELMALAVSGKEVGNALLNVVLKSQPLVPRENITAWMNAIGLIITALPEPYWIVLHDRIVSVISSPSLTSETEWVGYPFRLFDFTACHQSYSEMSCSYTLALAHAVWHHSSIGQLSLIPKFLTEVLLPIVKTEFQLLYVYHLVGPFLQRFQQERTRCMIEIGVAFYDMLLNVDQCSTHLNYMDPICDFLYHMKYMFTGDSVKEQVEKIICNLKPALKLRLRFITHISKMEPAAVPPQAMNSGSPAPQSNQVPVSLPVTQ
Method: To verify whether the D400 and H449 residues play a critical role in the ELF3-MED23 protein-protein interaction, a SEAP assay was performed. Specifically, 293T kidney cells were seeded at a density of 5×10^3 cells/well in a 96-well microplate (SPL, Korea) and cultured overnight. Subsequently, the cells were co-transfected with 100 ng of each plasmid using transfection-optimized medium (Welgene, Korea). The plasmids used included the SEAP reporter gene (pG5IL2SX) and GAL4-ELF3 expression vector (pBJ GAL4-ELF3). For transfection, the cells were incubated with WelFectQ (Welgene, Korea) for 3 hours, followed by the addition of either the candidate compound or MED23 protein constructs (pcDNA MED23^WT, K397A, D400A, H449G, and D400A/H449G). The treated cells were incubated for 12 hours. The candidate compound was added in an incubator at 5% CO2 and 37 °C, and the plate was incubated at 65 °C for 3 hours to inactivate all enzymes except SEAP (Secreted Alkaline Phosphatase). A mixture comprising 100 μL of substrate solution prepared with 1.19 μL of 0.1 M 4-methylumbelliferyl phosphate (Sigma, USA), 25 μL of inactivated medium, and 75 μL of double-distilled water was added, followed by the addition of 98.81 μL of 2 M diethanolamine (pH 10, Sigma, USA). The plate was incubated overnight at 37 °C. Subsequently, the fluorescence intensity was measured using a fluorometer (SPECTRAmax […], Molecular Devices, USA) at an excitation wavelength of 360 nm and an emission wavelength of 440 nm.
To further elaborate on the above findings, small molecule compounds that could affect the ELF3-MED23 PPI were designed and synthesized. Specifically, non-essential side chains were removed from gefitnib, and compounds were designed to include both hydrogen bond donors and acceptors for the D400 and H449 residues of MED23, respectively (FIG. 4A). Specifically, chalcones and pyrazolines were selected as core scaffolds, and 25 compounds (11 chalcones and 14 pyrazoline-based compounds) were prepared. The ELF3-MED23 PPI inhibitory activity of all prepared compounds was measured using a SEAP assay.

[5] = test system: NCI-N87 (HER2-positive gastric cancer cell line); assay: antiproliferative effect, NCI-N87; details: Homo sapiens, NCI-N87; 72 hours; HER2-positive
Method: as §1, §2

Row | IC50 [1] [µM] | IC50 [2] [µM] | IC50 [3] [µM] | inhibition at 10 µM [4] [%] | IC50 [5] [µM] | Structure (SMILES)
1 | > 50 | > 50 | 44.31 ± 0.11 | 50 | 47.76 ± 0.22 | O=C(/C=C/c1cccs1)c1ccccc1O [Compound 11, 1-(2-Hydroxyphenyl)-3-thiophen-2-yl-propenone]
2 | 9.04 ± 0.07 | 8.97 ± 0.17 | 30.02 ± 0.18 | 60 | 17.82 ± 0.17 | O=C(/C=C/c1ccc(O)cc1)c1cccc(O)c1 [Compound 5, 3-(4-Hydroxyphenyl)-1-(3-hydroxyphenyl)-propenone]
3 | > 50 | > 50 | 42.19 ± 0.01 | 50 | > 50 | O=C(/C=C/c1ccco1)c1ccccc1O [Compound 8, 3-Furan-2-yl-1-(2-hydroxyphenyl)-propenone]
4 | > 50 | 40.3 ± 0.51 | > 50 | 63 | > 50 | COc1ccc(C2CC(c3ccccc3O)=NN2C(C)=O)cc1 (centres unmarked) [Compound 22, 1-[3-(2-Hydroxyphenyl)-5-(4-methoxyphenyl)-4,5-dihydropyrazol-1-yl]-ethanone]
5 |  |  |  | 34 |  | CCC(=O)N1N=C(c2cccc(O)c2)CC1c1cccs1 (centres unmarked) [Compound 24, 1-[3-(3-Hydroxyphenyl)-5-thiophen-2-yl-4,5-dihydropyrazol-1-yl]-propan-1-one]
6 | > 50 | > 50 | > 50 | 90 | 44.9 ± 0.8 | COc1ccc(/C=C/C(=O)c2ccccc2O)cc1 [Compound 6, 1-(2-Hydroxyphenyl)-3-(4-methoxyphenyl)-propenone]
7 | > 50 | > 50 | > 50 | 23 | > 50 | CC(=O)N1N=C(c2ccccc2O)CC1c1ccco1 (centres unmarked) [Compound 17, 1-[5-Furan-2-yl-3-(2-hydroxyphenyl)-4,5-dihydropyrazol-1-yl]-ethanone]
8 | 5.57 ± 0.26 | 19.5 ± 0.41 | 0.69 | 14 | 42.4 ± 0.86 | COc1ccc(C2CC(c3cccc(O)c3)=NN2C(C)=O)c2ccccc12 (centres unmarked) [Compound 14, 1-[3-(3-Hydroxyphenyl)-5-(4-methoxynaphthalen-1-yl)-4,5-dihydropyrazol-1-yl]-ethanone]
9 | 17.57 ± 0.13 | 12 ± 0.17 | 25.64 ± 0.09 | 80 | 4.82 ± 0.1 | O=C(/C=C/c1ccc(Cl)cc1)c1cccc(O)c1 [Compound 4, 3-(4-Chlorophenyl)-1-(3-hydroxyphenyl)-propenone]
10 | > 50 | > 50 | > 50 | 45 | > 50 | CC(=O)N1N=C(c2ccccc2O)CC1c1ccc(Cl)cc1 (centres unmarked) [Compound 20, 1-[5-(4-Chlorophenyl)-3-(2-hydroxyphenyl)-4,5-dihydropyrazol-1-yl]-ethanone]
11 | 8.96 ± 0.02 | 14.36 ± 0.12 | 5.54 ± 0.21 | 80 | 14.38 ± 0.06 | O=C(/C=C/c1ccc(Cl)cc1)c1ccccc1O [Compound 10, 3-(4-Chlorophenyl)-1-(2-hydroxyphenyl)-propenone]
12 |  |  |  | 87 |  | CCC(=O)N1N=C(c2cccc(O)c2)CC1c1ccc(OC)cc1 (centres unmarked) [Compound 23, 1-[3-(3-Hydroxyphenyl)-5-(4-methoxyphenyl)-4,5-dihydropyrazol-1-yl]-propan-1-one]
13 | > 50 | > 50 | > 50 | 58 | > 50 | CC(=O)N1N=C(c2cccc(O)c2)CC1c1ccco1 (centres unmarked) [Compound 12, 1-[5-Furan-2-yl-3-(3-hydroxyphenyl)-4,5-dihydropyrazol-1-yl]-ethanone]
14 | 18.9 ± 0.2 | 8.51 ± 0.01 | 9.85 ± 0.37 | 41 | 10.7 ± 0.31 | COc1ccc(/C=C/C(=O)c2cccc(O)c2)cc1 [Compound 2, 1-(3-Hydroxyphenyl)-3-(4-methoxyphenyl)-propenone]
15 | 1.21 ± 0.02 | 7.64 ± 0.09 | 9.73 ± 0.04 | 70 | 3.45 ± 0.05 | COc1ccc(/C=C/C(=O)c2cccc(O)c2)c2ccccc12 [Compound 3, 1-(3-Hydroxyphenyl)-3-(4-methoxynaphthalen-1-yl)-propenone]
16 | 27.89 ± 0.06 | > 50 | > 50 | 50 | > 50 | O=C(/C=C/c1ccc(O)cc1)c1ccccc1O [Compound 9, 3-(4-Hydroxyphenyl)-1-(2-hydroxyphenyl)-propenone]
17 | > 50 | > 50 | > 50 | 57 | > 50 | CC(=O)N1N=C(c2ccccc2O)CC1c1cccs1 (centres unmarked) [Compound 21, 1-[3-(2-Hydroxyphenyl)-5-thiophen-2-yl-4,5-dihydropyrazol-1-yl]-ethanone]
18 | > 50 | > 50 | > 50 | 37 | > 50 | CC(=O)N1N=C(c2cccc(O)c2)CC1c1ccc(O)cc1 (centres unmarked) [Compound 16, 1-[5-(4-Hydroxyphenyl)-3-(3-hydroxyphenyl)-4,5-dihydropyrazol-1-yl]-ethanone]
19 |  |  |  | 42 |  | CCC(=O)N1N=C(c2cccc(O)c2)CC1c1ccc(Cl)cc1 (centres unmarked) [Compound 25, 1-[5-(4-Chlorophenyl)-3-(3-hydroxyphenyl)-4,5-dihydropyrazol-1-yl]-propan-1-one]
